Experimental data as given in US10174045B2, “Benzopyrylium compounds” (Pierce Biotechnology, Inc., priority 2012, dated 2019).
Marks after values point to notes of the source that are not given here.

How the values were obtained:
NCoR2 in U2OS cells = assay: Immunofluorescence cell based assay, detection of NCoR2 with dye-GAM; conditions: for quenching with molar excess: NCoR2 experiment
Protocol: (§1) In the indicated experiments, the inventive compounds and commercial dye were evaluated for immunofluorescence in a cell based assay using the following protocol. Frozen U20S cell plates which were stored at −80° C. were thawed for 30 minutes at 50° C. Storage buffer (PBS) was removed and cells were permeabilized for 15 minutes with 0.1% Triton-X100 in 1×PBS buffer (100 μl/well). The cell plate was blocked for 60 minutes in 2% BSA/PBS-0.1% Triton-X100. Primary antibody, either mouse anti-ezrin (1.3 μg/ml) or mouse anti-NCoR2 (20 μg/ml), diluted in 2% BSA/PBS-0.1% Triton-X100 was added to the plate and incubated for one hour at room temperature. Control wells contained only 2% BSA/PBS-0.1% Triton-X100 blocker. After incubation, the antibody solution was removed from the plate and the plate was washed three times with 100 μl/well of PBS-0.5% Tween-20 and one time with 100 μl/well PBS. GAM secondary antibodies labeled with various molar excess of the inventive or commercial compound were diluted to 4 μg/ml in PBS and incubated for one hour at room temperature. The plates were washed three times with 100 μl/well of PBST and once with 100 μl/well PBS, and Hoechst (diluted to 0.1 μg/ml in PBS) was added to each well (100 μl/well). The plates were scanned on ArrayScan Plate Reader.
NCoR2 was detected in U2OS cells with V03-07005-GAM, V08-16072-GAM, V13-06190-GAM, V17-03019-GAM, DyLight 680-GAM, and Alexa Fluor 680-GAM at a 2.5×, 5×, 10×, and 15× molar excesses. Quantitative analysis of the data, expressed as Mean Total Intensity, which is the average total intensity of all pixels within a defined area or defined primary object such as a nucleus, is shown below, where “Neg” indicates the negative control condition.

HDAC2 in U2OS cells = assay: Immunofluorescence cell based assay, nuclear detection of HDAC2 with dye-GAR; conditions: for quenching with molar excess: HDAC2 experiment
Protocol: (§2) In the indicated experiments, the inventive compounds and commercial dye were evaluated for immunofluorescence in a cell based assay using the following protocol. Frozen U20S cell plates stored at −80° C. were thawed for 30 minutes at 50° C. Storage buffer (PBS) was removed and the cells were permeabilized for 15 minutes with 0.1% Triton-X100 in 1×PBS buffer (100 μl/well). The cell plate was blocked for 60 minutes in 2% BSA/PBS-0.1% Triton-X100. Primary antibody, either rabbit anti-lamin B1 or rabbit anti-HDAC2 (10 μg/ml), diluted in 2% BSA/PBS-0.1% Triton-X100 was added to the plate and incubated for one hour at room temperature. Control wells contained only 2% BSA/PBS-0.1% Triton-X100 blocker. After incubation, antibody solution was removed from the plate and the plate was washed three times with 100 μl/well PBS-0.5% Tween-20 and one time with 100 μl/well PBS. GAR secondary antibodies labeled with various molar excess of the inventive or commercial compound were diluted to 4 μg/ml in PBS and incubated for one hour at room temperature. Plates were washed three times with 100 μl/well PBST and once with 100 μl/well PBS, and Hoechst (diluted to 0.1 μg/ml in PBS) was added to each well (100 μl/well). The plates were scanned on ArrayScan Plate Reader.
Quantitative analysis of the data of FIGS. 14-16, expressed as Mean Total Intensity, which is the average total intensity of all pixels within a defined area or defined primary object such as a nucleus, is shown below; “Neg” indicates negative control.

ezrin in U2OS cells = assay: Immunofluorescence cell based assay, detection of ezrin with dye-GAM; conditions: 2.5×-15× molar excess
Protocol: as §1, with “The plates were washed three times with 100 μl/well of PBST and once with 100 μl/well PBS, and Hoechst (diluted to 0.1 μg/ml in PBS) was added to each well (100 μl/well).” left out
Quantitative analysis of the data of FIGS. 17-19, expressed as Mean Total Intensity, which is the average total intensity of all pixels within a defined area or defined primary object such as a nucleus, is shown below; “Neg” indicates negative control.

[1] = Excitation/emission properties of dye NHS esters; assay type: physicochemical
Excerpt: The following properties of V03-07005, V08-16072, V13-06190, and V17-03019 were compared with commercially available dyes. DyLight 680 NHS is a non-pegylated benzopyrylium dye and the ‘V’ dyes are pegylated dyes described above.

lamin B1 in U2OS cells = assay: Immunofluorescence cell based assay, detection of lamin B1 with dye-GAR; conditions: for quenching with molar excess: lamin B1 experiment
Protocol: as §2
Quantitative analysis of the data of FIGS. 11-13, expressed as Mean Total Intensity, which is the average total intensity of all pixels within a defined area or defined primary object such as a nucleus, is shown below; “Neg” indicates negative control.

mouse IgG immunoglobulin = assay: Functional plate assay of dye-GAM conjugates, LiCor Odyssey 700 channel; assay type: binding; conditions: GAM conjugated with 5× molar excess, FIG. 6-7
Protocol: Performance of dye-GAM and dye-GAR conjugates was evaluated in a functional assay. Wells of a 96-well black clear-bottom plate were coated with target protein mouse or rabbit IgG immunoglobulin. One hundred μl mouse or rabbit IgG, at 10 μg/ml, was applied to the corresponding wells in row 1. The target proteins were serially diluted 1:1 from the wells in rows 2 to 7 using 100 μl PBS. One hundred μl of samples from the wells in row 7 were discarded. One hundred μl PBS was added to the wells in row 8. Plates were incubated overnight at 4° C. and then blocked 2×200 μl with Thermo Scientific SuperBlock® Blocking Buffer. The coated plates were washed 2×200 μl with PBS-Tween and 1×200 μl with PBS. Based on the calculated concentrations, conjugates were diluted 1:250 (of 1 mg/ml) in PBS, added to the corresponding plates (100 μl/well) and then incubated for one hour in the dark. The plates were washed with 2×200 μl with PBS-Tween and 1×200 μl with PBS and filled with PBS buffer (100 μl/well) prior to scanning the black clear-bottom plates on LiCor Odyssey at 700 channel, to detect fluorescence intensity.
As shown in FIGS. 1-10, RFU and/or signal to background ratio (S/B) of the dyes conjugated to the indicated antibody were compared at various concentrations, using the indicated conjugation conditions.

U2OS cells = assay: Immunofluorescence cell based assays, overall summary; conditions: summary of all immunofluorescence experiments
Protocol: as §2
In the indicated experiments, the inventive compounds and commercial dye were evaluated for immunofluorescence in a cell based assay using the following protocol. Frozen U20S cell plates which were stored at −80° C. were thawed for 30 minutes at 50° C. Storage buffer (PBS) was removed and cells were permeabilized for 15 minutes with 0.1% Triton-X100 in 1×PBS buffer (100 μl/well). The cell plate was blocked for 60 minutes in 2% BSA/PBS-0.1% Triton-X100. Primary antibody, either mouse anti-ezrin (1.3 μg/ml) or mouse anti-NCoR2 (20 μg/ml), diluted in 2% BSA/PBS-0.1% Triton-X100 was added to the plate and incubated for one hour at room temperature. Control wells contained only 2% BSA/PBS-0.1% Triton-X100 blocker. […] The plates were scanned on ArrayScan Plate Reader.

Compound	Ex ([1]; EtOH)	Ex ([1]; PBS)	Em [1] [nm]	further results
COCCOCCOCCOCCN(CCOCCOCCOCCOC)c1ccc2c(C(C)(C)C)cc(/C=C/C=C3/N(CCCS(=O)(=O)[O-])c4ccc(S(=O)(=O)[O-])cc4C3(C)CCCC(=O)O)[o+]c2c1.[Na+] (stereo not shown) [Compound V03-07005, (E)-2-((E)-3-(4-tert-butyl-7-(di2,5,8,11-tetraoxatridecan-13-ylamino)chromenylium-2-yl)allylidene)-3-(3-carboxypropyl)-3-methyl-1-(3-sulfonatopropyl)indoline-5-sulfonate]	690 nm	about 675 nm		staining / S/B performance, in words (NCoR2 in U2OS cells; NCoR2, 2.5×-15× molar excess): best performing benzopyrylium dye; staining / S/B performance, in words (HDAC2 in U2OS cells; HDAC2, 2.5×-15× molar excess): best performing benzopyrylium dye; staining / S/B performance, in words (ezrin in U2OS cells): best performing benzopyrylium dye; staining / S/B performance, in words (lamin B1 in U2OS cells; lamin B1, 2.5×-15× molar excess): best performing benzopyrylium dye; binding intensity (RFU), in words (mouse IgG immunoglobulin): performed best of the benzopyrylium dyes; staining performance, in words (U2OS cells): best performing benzopyrylium dye
COCCOCCOCCOCCN(CCCS(=O)(=O)[O-])c1ccc2c(C(C)(C)C)cc(/C=C/C=C3/N(CCCCCC(=O)O)c4ccc(S(=O)(=O)[O-])cc4C3(C)CCCS(=O)(=O)[O-])[o+]c2c1.[Na+].[Na+] (stereo not shown) [Compound V08-16072, (E)-2-((E)-3-(4-tert-butyl-7-((3-sulfonatopropyl)(2,5,8,11-tetraoxatridecan-13-yl)amino)chromenylium-2-yl)allylidene)-1-(5-carboxypentyl)-3-methyl-3-(3-sulfonatopropyl)indoline-5-sulfonate]	690 nm	about 675 nm		quenching with molar excess (NCoR2 in U2OS cells): gradually quenched from the 2.5× molar excess condition; quenching with molar excess (HDAC2 in U2OS cells): gradually quenching from 2.5× molar excess condition; quenching with molar excess (lamin B1 in U2OS cells): gradually quenching from 2.5× molar excess condition; quenching with molar excess (U2OS cells): gradual quenching from 2.5× molar excess condition
COCCOCCOCCOCCN(CCCS(=O)(=O)[O-])c1ccc2c(C(C)(C)C)cc(/C=C/C=C3/N(CCOCCOCCOCCOCCC(=O)O)c4ccc(S(=O)(=O)[O-])cc4C3(C)CCCS(=O)(=O)[O-])[o+]c2c1.[Na+].[Na+] (stereo not shown) [Compound V13-06190, (E)-2-((E)-3-(4-tert-butyl-7-((3-sulfonatopropyl)(2,5,8,11-tetraoxatridecan-13-yl)amino)chromenylium-2-yl)allylidene)-1-(14-carboxy-3,6,9,12-tetraoxatetradecyl)-3-methyl-3-(3-sulfonatopropyl)indoline-5-sulfonate]	690 nm	about 675 nm		quenching with molar excess (NCoR2 in U2OS cells): gradually quenched from the 2.5× molar excess condition; quenching with molar excess (HDAC2 in U2OS cells): gradually quenching from 2.5× molar excess condition; quenching with molar excess (lamin B1 in U2OS cells): gradually quenching from 2.5× molar excess condition; quenching with molar excess (U2OS cells): gradual quenching from 2.5× molar excess condition
COCCOCCOCCOCCN(CCCS(=O)(=O)[O-])c1ccc2c(C(C)(C)C)cc(/C=C/C=C3/N(CCCS(=O)(=O)[O-])c4ccc(S(=O)(=O)[O-])cc4C3(C)CCCC(=O)O)[o+]c2c1.[Na+].[Na+] (stereo not shown) [Compound V17-03019, (E)-2-((E)-3-(4-tert-butyl-7-((3-sulfonatopropyl)(2,5,8,11-tetraoxatridecan-13-yl)amino)chromenylium-2-yl)allylidene)-3-(3-carboxypropyl)-3-methyl-1-(3-sulfonatopropyl)indoline-5-sulfonate]	690 nm	about 675 nm		
COCCOCCOCCOCCN(CCOCCOCCOCCOC)c1ccc2c(C(C)(C)C)cc(/C=C/C=C3/N(CCCS(=O)(=O)[O-])c4ccc(S(=O)(=O)[O-])cc4C3(C)CCCC(=O)ON3C(=O)CCC3=O)[o+]c2c1.[Na+] (stereo not shown) [V03-07005-NHS]	690 (EtOH) nm	675 (PBS)* nm	708	
COCCOCCOCCOCCN(CCCS(=O)(=O)[O-])c1ccc2c(C(C)(C)C)cc(/C=C/C=C3/N(CCCCCC(=O)ON4C(=O)CCC4=O)c4ccc(S(=O)(=O)[O-])cc4C3(C)CCCS(=O)(=O)[O-])[o+]c2c1.[Na+].[Na+] (stereo not shown) [V08-16072-NHS]	691 (EtOH) nm	679 (PBS)* nm	712	
COCCOCCOCCOCCN(CCCS(=O)(=O)[O-])c1ccc2c(C(C)(C)C)cc(/C=C/C=C3/N(CCOCCOCCOCCOCCC(=O)ON4C(=O)CCC4=O)c4ccc(S(=O)(=O)[O-])cc4C3(C)CCCS(=O)(=O)[O-])[o+]c2c1.[Na+].[Na+] (stereo not shown) [V13-06190-NHS]	691 (EtOH) nm	679 (PBS)* nm	712	
COCCOCCOCCOCCN(CCCS(=O)(=O)[O-])c1ccc2c(C(C)(C)C)cc(/C=C/C=C3/N(CCCS(=O)(=O)[O-])c4ccc(S(=O)(=O)[O-])cc4C3(C)CCCC(=O)ON3C(=O)CCC3=O)[o+]c2c1.[Na+].[Na+] (stereo not shown) [V17-03019-NHS]	691 (EtOH) nm	675 (PBS)* nm	712	
